Consider one compound from US9593305B2, “Differentiation of pluripotent stem cells” (Janssen Biotech, Inc., priority 2008, dated 2017).

SMILES strings stand for the structures.

The assay relates to H1 human embryonic stem cells. The experiment in a line: Primary screening: definitive endoderm differentiation in the absence of activin A, cell number and SOX17 (Example 3). It counts as cell-based. Particulars: 2.5 μM compound, 20 ng/ml Wnt3a days 1-2, no activin A, four-day assay. On the procedure: Briefly, clusters of H1 human embryonic stem cells were grown on reduced growth factor […]™ (Invitrogen; Cat #1356231)-coated tissue culture plastic. Cells were passaged using collagenase (Invitrogen; Cat #17104-019) treatment and gentle scraping, washed to remove residual enzyme, and plated with even dispersal at a ratio of 1:1 (surface area) on reduced growth factor […]™-coated 96-well black plates (Packard ViewPlates; PerkinElmer; Cat #6005182) using volumes of 100 μl/well. Cells were allowed to attach as clusters and then recover log phase growth over a 1 to 3 day period, feeding daily with MEF conditioned medium supplemented with 8 ng/ml bFGF (R&D Systems; Cat #233-FB). Plates were maintained at 37° C., 5% CO2 in a humidified box throughout the duration of assay.
The compounds tested were made available as 5 mM stocks in 96-well plate format, solubilized in 100% DMSO (Sigma; Cat #D2650) and stored at −80° C. The library compounds were further diluted to an intermediate concentration of 0.2 mM in 50 mM HEPES (Invitrogen; Cat #15630-080), 20% DMSO and stored at 4° C. Test conditions were performed in triplicate, feeding on alternate days over a four-day assay period. Primary screening assays were initiated by aspirating culture medium from each well followed by three washes in PBS (Invitrogen; Cat #14190) to remove residual growth factors and serum. On the first day of assay, test volumes of 200 μl per well were added back containing DMEM:F12 base medium (Invitrogen; Cat #11330-032) supplemented with 0.5% FCS (HyClone; Cat #SH30070.03) and 20 ng/ml Wnt3a (R&D Systems; Cat #1324-WN) plus 2.5 μM test compound. On the third day of assay, test volumes of 200 μl per well were added back containing DMEM:F12 base medium supplemented with 2% FCS plus 2.5 μM test compound, without Wnt3a. Positive control samples contained the same base medium supplemented with FCS, substituting 100 ng/ml recombinant human activin A (PeproTech; Cat #120-14) for the test compound throughout the four-day assay along with Wnt3a (20 ng/ml) added only on days 1 and 2. Negative control samples contained DMEM:F12 base medium supplemented with FCS, adding Wnt3a on days 1 and 2 but omitting activin A.
At the conclusion of four-days of culture, assay plates were washed twice with PBS (Invitrogen; Cat #14190), fixed with 4% paraformaldehyde (Alexis Biochemical; Cat #ALX-350-011) at room temperature for 20 minutes, then washed three times with PBS and permeabilized with 0.5% Triton X-100 (Sigma; Cat #T8760-2) for 20 minutes at room temperature. Cells were washed again three times with PBS and blocked with 4% chicken serum (Invitrogen; Cat #16110082) in PBS for 30 minutes at room temperature. Primary antibody (goat anti-human SOX17; R&D Systems; Cat #AF1924) was diluted 1:100 in 4% chicken serum and added to each well for one hour at room temperature. Alexa Fluor 488 conjugated secondary antibody (chicken anti-goat IgG; Molecular Probes; Cat #AZ1467) was diluted 1:200 in PBS and added to each sample well after washing three times with PBS. To counter stain nuclei, 4 μg/ml Hoechst 33342 (Invitrogen; Cat #H3570) was added for ten minutes at room temperature. Plates were washed once with PBS and left in 100 μl/well PBS for imaging.
Imaging was performed using an IN Cell Analyzer 1000 (GE Healthcare) utilizing the 51008bs dichroic for cells stained with Hoechst 33342 and Alexa Fluor 488. Exposure times were optimized from positive control wells and from untreated negative control wells stained with secondary antibody alone. Images from 15 fields per well were acquired to compensate for any cell loss during the bioassay and subsequent staining procedures. Measurements for total cell number and total SOX17 intensity were obtained from each well using IN Cell Developer Toolbox 1.7 (GE Healthcare) software. Segmentation for the nuclei was determined based on gray-scale levels (baseline range 100-300) and nuclear size. […]

For the compound `CC(C)(C)OC(=O)NCCc1cccc(Nc2ncnc(-c3ccnc(C#CCO)c3)n2)c1` [Compound 3, 1,1-Dimethylethyl {2-[3-({4[2-(3-hydroxyprop-1-yn-1-yl)pyridin-4-yl]-1,3,5-triazin-2-yl}amino)phenyl]ethyl}carbamate], the “Cell Number: % of positive control” value is 133.82 % of positive control, the “Sox17 Expression: % of positive control” value was −0.73 % of positive control and the “Sox17 Expression: Average Total Intensity” value is reported as −2.34E+06. Where the note is “positive control 100 ng/ml activin A + Wnt3a”, the “Cell Number: Average Total Cell Number” value is 14211.
